Experimental data: patent publication US11208412B2 (DAEGU-GYEONGBUK MEDICAL INNOVATION FOUNDATION, priority 2017, dated 2021)

Legend:
Assay in all cases: Kinase selectivity, DiscoverX scanMAX Kinase assay panel (% control)
Type in all cases: binding
[1] = molecular target: T1, kinases of the scanMAX Kinase assay panel (Homo sapiens, UniProt P29320); conditions: EPHA3; 1 uM
T1 construct: purchased DiscoverX Co. (contract measurement) scanMAX Kinase assay panel
T1 sequence (P29320 21-983): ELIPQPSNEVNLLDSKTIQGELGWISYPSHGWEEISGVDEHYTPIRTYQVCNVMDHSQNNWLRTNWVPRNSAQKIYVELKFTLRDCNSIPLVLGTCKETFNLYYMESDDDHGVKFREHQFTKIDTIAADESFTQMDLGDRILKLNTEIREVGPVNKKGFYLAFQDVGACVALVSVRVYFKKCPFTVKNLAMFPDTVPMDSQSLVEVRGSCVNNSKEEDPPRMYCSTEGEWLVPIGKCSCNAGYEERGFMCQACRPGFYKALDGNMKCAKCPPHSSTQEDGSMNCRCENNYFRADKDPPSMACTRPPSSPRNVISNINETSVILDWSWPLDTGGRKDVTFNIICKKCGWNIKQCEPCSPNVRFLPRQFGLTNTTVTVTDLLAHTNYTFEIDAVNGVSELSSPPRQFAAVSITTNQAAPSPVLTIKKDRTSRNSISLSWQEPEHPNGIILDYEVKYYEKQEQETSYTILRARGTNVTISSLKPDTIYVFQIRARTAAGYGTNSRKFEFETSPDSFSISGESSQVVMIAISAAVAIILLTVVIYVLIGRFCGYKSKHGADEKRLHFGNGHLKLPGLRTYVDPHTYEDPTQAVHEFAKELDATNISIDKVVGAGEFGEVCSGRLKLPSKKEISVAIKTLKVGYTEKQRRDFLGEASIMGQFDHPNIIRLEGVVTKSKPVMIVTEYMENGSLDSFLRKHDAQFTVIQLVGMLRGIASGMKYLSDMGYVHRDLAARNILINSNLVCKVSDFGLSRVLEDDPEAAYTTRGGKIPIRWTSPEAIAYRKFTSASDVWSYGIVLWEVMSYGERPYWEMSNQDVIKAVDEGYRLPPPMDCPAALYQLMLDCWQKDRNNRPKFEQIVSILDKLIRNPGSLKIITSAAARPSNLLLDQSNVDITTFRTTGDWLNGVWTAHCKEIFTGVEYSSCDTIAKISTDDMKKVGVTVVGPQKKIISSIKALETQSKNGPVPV
Procedure, shortened: (§1)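 Binding-panel profiling at one concentration, 1 uM in DMSO; values are % of DMSO control after subtracting the positive-control floor. Less than 35% means activity on that kinase.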

[2] = molecular target: T2, kinases of the scanMAX Kinase assay panel (Homo sapiens, UniProt P36897); conditions: kinase TGFBR1; 1 uM in DMSO
T2 construct: purchased DiscoverX Co. (contract measurement) scanMAX Kinase assay panel
T2 sequence (P36897 34-503): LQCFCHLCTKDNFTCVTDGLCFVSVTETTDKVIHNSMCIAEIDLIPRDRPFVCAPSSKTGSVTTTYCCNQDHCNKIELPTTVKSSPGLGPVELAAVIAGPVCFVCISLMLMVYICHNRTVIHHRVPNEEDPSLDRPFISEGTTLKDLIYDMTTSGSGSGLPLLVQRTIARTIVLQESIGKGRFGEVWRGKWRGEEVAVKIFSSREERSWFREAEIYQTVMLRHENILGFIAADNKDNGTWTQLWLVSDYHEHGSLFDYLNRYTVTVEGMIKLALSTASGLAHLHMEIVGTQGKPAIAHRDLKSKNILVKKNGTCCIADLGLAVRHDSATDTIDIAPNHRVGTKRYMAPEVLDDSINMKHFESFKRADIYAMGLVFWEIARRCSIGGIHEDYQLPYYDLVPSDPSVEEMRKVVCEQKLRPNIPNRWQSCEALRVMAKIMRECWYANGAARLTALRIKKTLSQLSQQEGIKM
Procedure, shortened: as §1

[3] = molecular target: T3, kinases of the scanMAX Kinase assay panel (Homo sapiens, UniProt P52333); conditions: JAK3(JH1domain-catalytic); 1 uM
T3 construct: purchased DiscoverX Co. (contract measurement) scanMAX Kinase assay panel
T3 sequence (P52333 1-1124): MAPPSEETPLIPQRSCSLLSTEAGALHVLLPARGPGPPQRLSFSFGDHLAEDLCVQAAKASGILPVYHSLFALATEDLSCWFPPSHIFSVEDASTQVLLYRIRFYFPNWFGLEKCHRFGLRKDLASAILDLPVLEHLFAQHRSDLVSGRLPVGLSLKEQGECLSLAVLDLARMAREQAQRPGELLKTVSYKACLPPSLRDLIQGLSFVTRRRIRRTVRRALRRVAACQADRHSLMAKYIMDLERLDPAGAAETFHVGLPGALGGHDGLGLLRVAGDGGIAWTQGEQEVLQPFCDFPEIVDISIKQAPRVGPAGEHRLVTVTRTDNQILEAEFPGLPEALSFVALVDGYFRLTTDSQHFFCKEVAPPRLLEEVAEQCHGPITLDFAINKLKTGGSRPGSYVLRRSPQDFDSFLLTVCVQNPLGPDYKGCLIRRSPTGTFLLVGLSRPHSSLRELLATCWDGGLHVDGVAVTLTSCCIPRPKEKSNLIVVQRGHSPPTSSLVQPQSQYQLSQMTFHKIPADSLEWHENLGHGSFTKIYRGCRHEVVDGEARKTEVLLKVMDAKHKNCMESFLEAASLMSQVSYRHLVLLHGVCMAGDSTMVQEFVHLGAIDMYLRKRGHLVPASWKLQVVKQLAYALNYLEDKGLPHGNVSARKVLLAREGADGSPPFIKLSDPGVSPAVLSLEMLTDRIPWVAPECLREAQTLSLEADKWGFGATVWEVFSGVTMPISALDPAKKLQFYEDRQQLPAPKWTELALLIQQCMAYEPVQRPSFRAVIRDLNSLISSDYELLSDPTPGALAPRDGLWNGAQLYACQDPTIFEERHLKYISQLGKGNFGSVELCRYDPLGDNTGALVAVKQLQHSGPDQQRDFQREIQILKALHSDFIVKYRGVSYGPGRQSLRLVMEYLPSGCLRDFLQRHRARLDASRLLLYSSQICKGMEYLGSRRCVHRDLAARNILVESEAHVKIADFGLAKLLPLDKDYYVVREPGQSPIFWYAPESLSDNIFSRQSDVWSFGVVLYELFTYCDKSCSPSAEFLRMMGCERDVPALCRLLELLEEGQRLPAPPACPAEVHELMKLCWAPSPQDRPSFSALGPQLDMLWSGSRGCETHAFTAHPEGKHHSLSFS
Procedure, shortened: as §1

[4] = molecular target: T4, kinases of the scanMAX Kinase assay panel (Homo sapiens, UniProt Q8NI60); conditions: ADCK3; 1 uM
T4 construct: purchased DiscoverX Co. (contract measurement) scanMAX Kinase assay panel
T4 sequence (Q8NI60 163-647): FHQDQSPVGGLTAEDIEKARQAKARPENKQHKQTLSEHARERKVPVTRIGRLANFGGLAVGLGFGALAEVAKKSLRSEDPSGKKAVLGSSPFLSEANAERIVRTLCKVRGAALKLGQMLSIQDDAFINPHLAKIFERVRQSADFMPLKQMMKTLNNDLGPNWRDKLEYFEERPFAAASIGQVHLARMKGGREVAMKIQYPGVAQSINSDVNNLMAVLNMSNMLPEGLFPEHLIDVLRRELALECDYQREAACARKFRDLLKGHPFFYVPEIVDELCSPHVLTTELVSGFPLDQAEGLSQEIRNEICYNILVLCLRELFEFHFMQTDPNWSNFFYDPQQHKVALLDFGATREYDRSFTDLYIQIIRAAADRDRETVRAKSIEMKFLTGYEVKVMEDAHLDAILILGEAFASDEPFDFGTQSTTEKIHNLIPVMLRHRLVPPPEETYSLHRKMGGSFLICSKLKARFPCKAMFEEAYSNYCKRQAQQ
Procedure, shortened: as §1

| SMILES | remaining binding at 1 µM [1] [%] | remaining binding at 1 µM [2] [%] | remaining binding at 1 µM [3] [%] | remaining binding at 1 µM [4] [%] |
| --- | --- | --- | --- | --- |
| CNc1nc(Nc2ccc(C(=O)N3CCOCC3)cc2OC)nc2[nH]cc(C#N)c12 [Example 1, 2-((2-methoxy-4-(morpholine-4-carbonyl)phenyl)amino)-4-(methylamino)-7H-pyrrolo[2,3-d]pyrimidine-5-carbonitrile] | 92 | 5.1 | 64 | 94 |
| CC1(Nc2nc(Nc3cnn([C@H]4CCN(C5COC5)C[C@@H]4F)c3Cl)nc3[nH]cc(C#N)c23)CC1 [Example 52, 2-((5-chloro-1-((3S,4S)-3-fluoro-1-(oxetane-3-yl)piperidine-4-yl)-1H-pyrazole-4-yl)amino)((1-methylcyclopropyl)amino)-7H-pyrrolo[2,3-d]pyrimidine-5-carbonitrile] | 18 | 91 | 0 | 98 |
| CCNc1nc(Nc2ccc(C(=O)N3CCC(N4CCOCC4)CC3)cc2OC)nc2[nH]cc(C(F)(F)F)c12 [Example 104, (4-((4-(ethylamino)-5-(trifluoromethyl)-7H-pyrrolo[2,3-d]pyrimidine-2-yl)amino)-3-methoxyphenyl)(4-morpholinopiperidine-1-yl)methanone] | 92 | 100 | 100 | 100 |
